Values after ≈ are worked out from the molar mass of the structure shown. Blank lines part the entries; values can stand above or below the molecule they belong to. Square brackets hold non-standard residues; d marks the D form. Ends that are not written are not given here. Peptide text beside a SMILES is read from it. pGlu = O=C1CC[C@@H](C(=O)O)N1; βAla = NCCC(=O)O
Assays:
thymectomised mice [1] = experiment: Kinetics of the activity in the serum after injection of peptide without carboxymethyl cellulose; type: in vivo; conditions: 1 ng of polypeptide injected into thymectomised mice; active serum dilutions against time; FIGS. 1 to 3
Description: These kinetics have also been established for active products, but without any delay action, by way of comparison. The results of these tests have been established in the form of curves in FIGS. 1, 2 and 3 of the accompanying drawings.

thymectomised mice [2] = experiment: Activity in vivo: study of the serum after injection of peptide absorbed on carboxymethyl cellulose
Procedure: The peptides active in vitro were also checked in tests carried out in vivo. Injected into 6 weeks old thymectomised mice and used 8 weeks after the thymectomy, the peptides produce the appearance at the 15th minute in the serum of a biological activity conferring the sensitivity to the azothioprine of the spleen cells forming rosettes. […] (2) Activity in vivo (study of the serum 2 hours and 4 hours after injection into thymectomised mice in different quantities (0.1, 1 or 10 ng) of peptide absorbed on carboxymethyl cellulose). The results of the tests in vivo on the serum and on the spleen, set out in Tables II, III and IV, were established by the procedure as previously indicated.

antibodies = experiment: Bonding with the antibodies; type: binding; design: key: +: the peptide is bonded; -: is not bonded to the antibodies
Description: The suitability of the peptides for being bonded to the antibodies is indicated by the + and - symbols, which respectively signify that the peptide is bonded or is not bonded to the antibodies.

[3] = tested on: cells of the spleen forming rosettes (RFC); experiment: Rosette test in vitro (thymic activity); type: cell-based, adult C 57/B1 6 mice; conditions: for Activity in the rosette test (control peptides): in vitro, control peptides of similar molecular weight
Procedure: The thymic activity of the polypeptide is established by incubation in a hemolysis tube with 3×10^6 cells of the spleen originating from adult C 57/B1 6 mice (supplied by the Centre d'Elevage des Animaux de Laboratoire of C.N.R.S. (45 Orleans, La Source), thymectomised 10 to 20 days previously. The thymectomy method is described by M. Dardenne and J. F. Bach in Immunology, 25, 343 (1973) on page 344. The contents of this article are incorporated herein by reference.
The incubation is carried out for 90 minutes at 37° C. in the presence of azathioprine (Az) at a concentration of 10 μg/ml.
On completion of the incubation, 12×10^6 red cells from sheep's blood (SRBC) are added to the cells in the test specimen. The cells in the specimen are centrifuged for 6 minutes at 200 g and carefully brought gently into suspension by rotation on a roller (diameter 10 cm) at a low speed (10 r.p.m.). The RFC are counted in a hematocytometer.
(1) Activity in vitro in the rosette test.

[4] = tested on: rosette-forming cells of the spleen of thymectomised mice; experiment: Test in vivo on the spleen: correction of the reactivity of rosette-forming spleen cells to azathioprine; conditions: Table IV, quantity injected 0,1 ng, individual values
Procedure: (3) Correction of the abnormal reactivity of the cells forming the rosettes of the spleen with azathioprine in thymectomised mice 24 hours after injecting the peptide (0.1, 1 and 10 ng) bonded to the carboxymethyl cellulose.
The tests on the spleen were carried out by determining the quantity of azathioprine which is necessary for inhibiting the rosette-forming cells of the spleen of thymectomised mice after an established time (24 hours and possibly also 48 hours) after the injection of an established quantity of polypeptide (0.1, 1 or 10 ng).

Time of the activity peak in the serum after injection (thymectomised mice [1]): ~45 min
Molecule: CC(=O)NCCCC[C@H](NC(=O)[C@H](C)NC(=O)[C@@H]1CCC(=O)N1)C(=O)N[C@@H](CO)C(=O)N[C@@H](CCC(N)=O)C(=O)NCC(=O)NCC(=O)N[C@@H](CO)C(=O)N[C@@H](CC(N)=O)C(=O)O [Peptide 62, PyroGlu-Ala-Lys(Ac)-Ser-Gln-Gly-Gly-Ser-Asn] ([pGlu]AK(Ac)SQGGSN-OH)

Molecule: C[C@H](NC(=O)[C@@H]1CCC(=O)N1)C(=O)N[C@@H](CCCCN)C(=O)N[C@@H](CO)C(=O)N[C@@H](CCC(N)=O)C(=O)NCC(=O)NCC(=O)N[C@@H](CO)C(=O)NCCC(N)=O [Peptide 86, PyroGlu-Ala-Lys-Ser-Gln-Gly-Gly-Ser-β-Ala-NH2] ([pGlu]AKSQGGS[βAla]-NH2)
Activity in vivo (thymectomised mice [2]; Table I, thymectomised mice): + (active)
Active or inactive polypeptide (conclusion from Tables I to IV) (thymectomised mice [2]; overall judgement of the tests in vitro and in vivo): active
Bonding with the antibodies (antibodies; Table I): -
Bonding with the antibodies (antibodies; Table IV): -
Activity in vitro ([3]; Table I, rosette test): + (active)
Active concentration (ng/ml) (test in vitro) ([3]; Table III, rosette test, azathioprine 10 μg/ml, 90 minutes at 37° C.): 7.10^-3 ng/ml
Spleens (test in vivo) 24 hours after injection: Quantity of azathioprine [4]: 12 µg

Time of the activity peak in the serum after injection (thymectomised mice [1]): ~60 min
Molecule: C[C@H](NC(=O)[C@@H]1CCC(=O)N1)C(=O)N[C@@H](CCCCN)C(=O)N[C@@H](CO)C(=O)N[C@@H](CCC(N)=O)C(=O)N[C@H](C)C(=O)NCC(=O)N[C@@H](CO)C(=O)N[C@@H](CC(N)=O)C(=O)O [Peptide 89, PyroGlu-Ala-Lys-Ser-Gln-D-Ala-Gly-Ser-Asn] ([pGlu]AKSQ[dA]GSN-OH)

Molecule: Cn1cnc([N+](=O)[O-])c1Sc1ncnc2nc[nH]c12 [azathioprine]
IC50 ([3]; Mus musculus, spleen cells coming from normal mice, read-out: minimal concentration of Az inhibiting 50% of the cells of the spleen forming rosettes (RFC)): 1 µg/mL (≈ 3.61 µM)

Molecule: angiotensine
Activity in the rosette test (control peptides) [3]: inactive

Molecule: substance P (RPKPQQFFGLM; ends and bridges not checked; UniProt P20366 58-68, looked up) [control peptide of similar molecular weight]
Activity in the rosette test (control peptides) [3]: inactive

Source: US4301065A, “Novel polypeptides having thymic activity or an antagonistic activity and processes for their synthesis” (Agence Nationale de Valorisation de la Recherche (ANVAR), priority 1977, dated 1981)
